Experimental data taken from ChEMBL document CHEMBL5321282, “Design, Synthesis, and Biological Evaluation of Esculetin-Furoxan-DEAC Ternary Hybrids for Anti-Triple Negative Breast Cancer” (J Med Chem, 2023).
Calls of active or inactive are those of the source. No cut-off for these calls is given here.

Legend:
MDA-MB-231 [1] = assay: Induction of apoptosis in human MDA-MB-231 cells assessed as decrease in mitochondrial CytC level at 5 to 20 nM incubated for 8 hrs by Western blotting analysis; format: functional, cell-based; conditions: dose 5-20 nM
MDA-MB-231 [2] = assay: Induction of apoptosis in human MDA-MB-231 cells assessed as late apoptotic cells at 10 nM incubated for 24 hrs by Annexin V-FITC/PI staining based flow cytometric analysis (reference value: 4.90%); format: functional
MDA-MB-231 [3] = assay: Induction of apoptosis in human MDA-MB-231 cells assessed as early apoptotic cells at 10 nM incubated for 24 hrs by Annexin V-FITC/PI staining based flow cytometric analysis (reference value: 4.90%); format: functional
A549 = assay: Antiproliferative activity against human A549 cells assessed as inhibition of cell growth measured after 48 hrs by MTT assay; format: functional, cell-based; conditions: A549, 48 h
MDA-MB-231 [4] = assay: Induction of apoptosis in human MDA-MB-231 cells assessed as increase in cytoplasmic CytC level at 5 to 20 nM incubated for 8 hrs by Western blotting analysis; format: functional, cell-based; conditions: dose 5-20 nM
[5] = Toxicity in BALB/C mouse xenografted with human MDA-MB-231 cells assessed as spleen damage at 2.5 to 5 mg/kg, ip administered every 2 days measured after 3 weeks by H and E staining based analysis; format: organism-based; conditions: in vivo, 504 h, dose 2.5-5 mg/kg
MDA-MB-231 [6] = assay: Induction of apoptosis in human MDA-MB-231 cells assessed as viable cells at 10 nM incubated for 24 hrs by Annexin V-FITC/PI staining based flow cytometric analysis (reference value: 90.1%); format: functional; conditions: read-out: Activity
MDA-MB-231 [7] = assay: Induction of apoptosis in human MDA-MB-231 cells assessed as necrotic cells at 20 nM incubated for 24 hrs by Annexin V-FITC/PI staining based flow cytometric analysis (reference value: 0.11%); format: functional
MDA-MB-231 [8] = assay: Induction of apoptosis in human MDA-MB-231 cells assessed as necrotic cells at 5 nM incubated for 24 hrs by Annexin V-FITC/PI staining based flow cytometric analysis (reference value: 0.11%); format: functional
[9] = Cytotoxicity against human L02 cells assessed as inhibition in cell growth measured after 48 hrs by MTT assay; format: toxicity, cell-based
MDA-MB-231 [10] = assay: Induction of cell cycle arrest in human MDA-MB-231 cells assessed as accumulation of cells at G2 phase at 5 nM measured after 24 hrs by PI staining by flow cytometric analysis (Rvb =18.1%); format: functional
[11] = Selectivity index, ratio of IC50 for cytotoxicity against human MCF-10A cells to IC50 for antiproliferative activity against human MDA-MB-231 cells; format: toxicity, cell-based; conditions: MCF-10A cells versus MDA-MB-231 cells, read-out: Ratio IC50
[12] = Selectivity index, ratio of IC50 for cytotoxicity against human L02 cells to IC50 for antiproliferative activity against human MDA-MB-231 cells; format: toxicity, cell-based; conditions: L02 cells versus MDA-MB-231 cells, read-out: Ratio IC50
MDA-MB-231 [13] = assay: Induction of apoptosis in human MDA-MB-231 cells assessed as effect on ANT level at 5 to 20 nM incubated for 8 hrs by Western blotting analysis; format: functional, cell-based; conditions: dose 5-20 nM
MDA-MB-231 [14] = assay: Induction of cell cycle arrest in human MDA-MB-231 cells assessed as accumulation of cells at G1 phase at 5 nM measured after 24 hrs by PI staining based flow cytometric analysis (Rvb =58%); format: functional
MDA-MB-231 [15] = assay: Induction of apoptosis in human MDA-MB-231 cells assessed as increase in activation of caspase level incubated for 8 hrs by Western blotting analysis; format: functional, cell-based; conditions: dose 5-20 nM
[16] = Cytotoxicity against human MCF-10A cells assessed as inhibition in cell growth measured after 48 hrs by MTT assay; format: toxicity, cell-based
[17] = Toxicity in BALB/C mouse xenografted with human MDA-MB-231 cells assessed as lung damage at 2.5 to 5 mg/kg, ip administered every 2 days measured after 3 weeks by H and E staining based analysis; format: organism-based; conditions: in vivo, 504 h, dose 2.5-5 mg/kg
MDA-MB-231 [18] = assay: Induction of cell cycle arrest in human MDA-MB-231 cells assessed as accumulation of cells at G2/M phase at 5 to 20 nM measured after 24 hrs by PI staining by flow cytometric analysis (Rvb =11.70%); format: functional; conditions: dose 5-20 nM
[19] = Drug localization in mitochondria of human MDA-MB-231 cells at 1 uM incubated for 1 hr measured after 40 mins by mito-tracker probe based confocal laser scanning microscopic analysis; format: ADME; conditions: mda-mb-231, 1.667 h, time 100 min
MDA-MB-231 [20] = assay: Induction of apoptosis in human MDA-MB-231 cells assessed as viable cells at 5 nM incubated for 24 hrs by Annexin V-FITC/PI staining based flow cytometric analysis (reference value: 90.1%); format: functional; conditions: read-out: Activity
MDA-MB-231 [21] = assay: Antitumor activity against human MDA-MB-231 cells xenografted in BALB/C mouse assessed as increase in ROS level in tumor at 2.5 to 5 mg/kg, ip administered every 2 days measured after 3 weeks by DHE staining based analysis; format: functional, organism-based; conditions: dose 2.5-5 mg/kg
MDA-MB-231 [22] = assay: Induction of apoptosis in human MDA-MB-231 cells assessed as viable cells at 20 nM incubated for 24 hrs by Annexin V-FITC/PI staining based flow cytometric analysis (reference value: 90.1%); format: functional; conditions: read-out: Activity
[23] = Drug localization in mitochondria of human HCT-116 cells at 1 uM incubated for 1 hr measured after 40 mins by mito-tracker probe based confocal laser scanning microscopic analysis; format: ADME; conditions: hct-116, 1.667 h, time 100 min
MDA-MB-231 [24] = assay: Antiproliferative activity against human MDA-MB-231 cells assessed as induction of ROS production at 20 nM in presence of NAC measured after 24 hrs by MTT assay; format: functional, cell-based
MDA-MB-231 [25] = assay: Induction of apoptosis in human MDA-MB-231 cells assessed as increase in Bax level incubated for 24 hrs by Western blotting analysis; format: functional, cell-based; conditions: dose 5-20 nM
HCT-116 = assay: Antiproliferative activity against human HCT-116 cells assessed as inhibition of cell growth measured after 48 hrs by MTT assay; format: functional, cell-based; conditions: HCT-116, 48 h
MDA-MB-231 [26] = assay: Antiproliferative activity against human MDA-MB-231 cells assessed as effect on NO level at 25 uM incubated for 2 hrs; format: functional, cell-based
MDA-MB-231 [27] = assay: Induction of cell cycle arrest in human MDA-MB-231 cells assessed as accumulation of cells at G2 phase at 10 nM measured after 24 hrs by PI staining by flow cytometric analysis (Rvb =18.1%); format: functional
MDA-MB-231 [28] = assay: Induction of apoptosis in human MDA-MB-231 cells assessed as necrotic cells at 10 nM incubated for 24 hrs by Annexin V-FITC/PI staining based flow cytometric analysis (reference value: 0.11%); format: functional
MDA-MB-231 [29] = assay: Induction of cell cycle arrest in human MDA-MB-231 cells assessed as accumulation of cells at S phase at 10 nM measured after 24 hrs by PI staining based flow cytometric analysis (Rvb =24.1%); format: functional
MDA-MB-231 [30] = assay: Induction of cell cycle arrest in human MDA-MB-231 cells assessed as accumulation of cells at G1 phase at 10 nM measured after 24 hrs by PI staining based flow cytometric analysis (Rvb =58%); format: functional
MDA-MB-231 [31] = assay: Induction of apoptosis in human MDA-MB-231 cells assessed as increase in cytoplasmic SMAC level at 5 to 20 nM incubated for 8 hrs by Western blotting analysis; format: functional, cell-based; conditions: dose 5-20 nM

With `CCN(CC)c1ccc2cc(C(=O)OCCCCCOc3cc4ccc(=O)oc4cc3OCCCCCCOc3no[n+]([O-])c3S(=O)(=O)c3ccccc3)c(=O)oc2c1` the Activity (MDA-MB-231 [1]) was “Active”, the Activity (MDA-MB-231 [2]) was 30% and the Activity (MDA-MB-231 [3]) was 21.9%. For the same compound, the IC50 (A549) was 0.84 µM, the Activity (MDA-MB-231 [4]) was “Active” and the Activity [5] was “Non-Toxic”. It also gave a viability at 0.01 µM (MDA-MB-231 [6]) of 47.3%, an Activity (MDA-MB-231 [7]) of 3.93% and an Activity (MDA-MB-231 [8]) of 0.26%. The IC50 at 48 h [9] was 11.9 µM, the Activity (MDA-MB-231 [10]) was 12.8% and the selectivity ratio [11] was > 6250. The selectivity ratio [12] was 1490, the Activity (MDA-MB-231 [13]) was “inactive” and the Activity (MDA-MB-231 [14]) was 55.3%. The Activity (MDA-MB-231 [15]) was “Dose-Dependent Effect”, the IC50 at 48 h [16] was > 50 µM and the Activity [17] was “Non-Toxic”. For the same compound, the Activity (MDA-MB-231 [18]) was 22.97%, the Drug uptake [19] was “Active” and the viability at 0.005 µM (MDA-MB-231 [20]) was 67.1%. The Activity (MDA-MB-231 [21]) was “Active”, the viability at 0.02 µM (MDA-MB-231 [22]) was 25.2% and the Drug uptake [23] was “Active”. For the same compound, the Activity (MDA-MB-231 [24]) was “inactive”, the Activity (MDA-MB-231 [25]) was “Dose-Dependent Effect” and the IC50 (HCT-116) was 4.14 µM. For the same compound, the Activity (MDA-MB-231 [26]) was “Active”, the Activity (MDA-MB-231 [27]) was 13.8% and the Activity (MDA-MB-231 [28]) was 0.83%. The Activity (MDA-MB-231 [29]) was 25.9%, the Activity (MDA-MB-231 [30]) was 56% and the Activity (MDA-MB-231 [31]) was “Active”.
